# Experimental data reported in patent US9572895B2, “Multiplexed supramolecular assemblies for non-viral delivery of genetic material” (The Board of Trustees of the University of Illinois, priority 2010, dated 2017).
# System: plasmid DNA
# Assay: Gel retardation assay on plasmid DNA
# Type: binding
# Details: various agent:DNA mass ratios, 1% agarose gel
# Description: A solution of DNA (1 μg/10 μL) was prepared in doubled distilled water. Appropriate amounts of spermine, DOS or oligoarginine dissolved in double distilled water were added to the DNA solution (10 μL) to achieve the desired spermine:DNA, DOS:DNA or Arg9:DNA weight ratio (FIGS. 6 and 7). Complexes were incubated at room temperature for 15 min, after which loading dye was added and the solution (10 μL) was run on a 1% agarose gel (70 V, 70 min). DNA was stained with ethidium bromide and visualized on a Gel Doc imaging system (Biorad, Herclues, Calif.).
substance,measurement,value
H-Arg-Arg-Arg-Arg-Arg-Arg-Arg-Arg-Arg-OH trifluoroacetate salt [Arg9],electrostatic interaction with plasmid DNA (gel retardation),confirming the electrostatic interaction
